Assay results reported in PubChem BioAssay (NCI).
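96-well plates; 48 h exposure; 5 concentrations. Endpoints by linear interpolation between flanking doses. Not reached: highest tested concentration assigned. At the GI50, growth is halved. TGI: concentration producing complete growth inhibition.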

How the values were obtained:
Assay in all cases: inhibition of tumour cell growth, NCI panel, 48 h
786-0 renal = tested on: 786-0 renal
A498 renal = tested on: A498 renal
A549 NSCLC = tested on: A549 NSCLC
ACHN renal = tested on: ACHN renal
BT-549 breast = tested on: BT-549 breast
CAKI-1 renal = tested on: CAKI-1 renal
CCRF-CEM leukemia = tested on: CCRF-CEM leukemia
COLO 205 colon = tested on: COLO 205 colon
DU-145 prostate = tested on: DU-145 prostate
HCC-2998 colon = tested on: HCC-2998 colon
HCT-116 colon = tested on: HCT-116 colon
HCT-15 colon = tested on: HCT-15 colon
HL-60(TB) leukemia = tested on: HL-60(TB) leukemia
HOP-62 NSCLC = tested on: HOP-62 NSCLC
HOP-92 NSCLC = tested on: HOP-92 NSCLC
HS 578T breast = tested on: HS 578T breast
HT29 colon = tested on: HT29 colon
IGROV1 ovarian = tested on: IGROV1 ovarian
K-562 leukemia = tested on: K-562 leukemia
KM12 colon = tested on: KM12 colon
LOX IMVI melanoma = tested on: LOX IMVI melanoma
M14 melanoma = tested on: M14 melanoma
MALME-3M melanoma = tested on: MALME-3M melanoma
MCF7 breast = tested on: MCF7 breast
MDA-MB-231 breast = tested on: MDA-MB-231 breast
MDA-MB-435 = tested on: MDA-MB-435
MOLT-4 leukemia = tested on: MOLT-4 leukemia
NCI-H226 lung = tested on: NCI-H226 lung
NCI-H23 lung = tested on: NCI-H23 lung
NCI-H460 lung = tested on: NCI-H460 lung
NCI-H522 lung = tested on: NCI-H522 lung
NCI/ADR-RES ovarian = tested on: NCI/ADR-RES ovarian
OVCAR-3 ovarian = tested on: OVCAR-3 ovarian
OVCAR-4 ovarian = tested on: OVCAR-4 ovarian
OVCAR-5 ovarian = tested on: OVCAR-5 ovarian
OVCAR-8 ovarian = tested on: OVCAR-8 ovarian
PC-3 prostate = tested on: PC-3 prostate
RPMI-8226 leukemia = tested on: RPMI-8226 leukemia
RXF 393 renal = tested on: RXF 393 renal
SF-268 CNS = tested on: SF-268 CNS
SF-295 CNS = tested on: SF-295 CNS
SF-539 CNS = tested on: SF-539 CNS
SK-MEL-2 melanoma = tested on: SK-MEL-2 melanoma
SK-MEL-28 melanoma = tested on: SK-MEL-28 melanoma
SK-MEL-5 melanoma = tested on: SK-MEL-5 melanoma
SK-OV-3 ovarian = tested on: SK-OV-3 ovarian
SN12C renal = tested on: SN12C renal
SNB-19 CNS = tested on: SNB-19 CNS
SNB-75 CNS = tested on: SNB-75 CNS
SR leukemia = tested on: SR leukemia
SW-620 colon = tested on: SW-620 colon
T-47D breast = tested on: T-47D breast
TK-10 renal = tested on: TK-10 renal
U251 CNS = tested on: U251 CNS
UACC-257 melanoma = tested on: UACC-257 melanoma
UACC-62 melanoma = tested on: UACC-62 melanoma
UO-31 renal = tested on: UO-31 renal

Structure (SMILES): Cc1ccccc1-n1ncc(C(=O)c2ccccc2)c1N
- GI50 (786-0 renal): > 25 µM
- TGI (786-0 renal): > 25 µM
- GI50 (A498 renal): > 25 µM
- TGI (A498 renal): > 25 µM
- GI50 (A549 NSCLC): > 25 µM
- TGI (A549 NSCLC): > 25 µM
- GI50 (ACHN renal): > 25 µM
- TGI (ACHN renal): > 25 µM
- GI50 (BT-549 breast): > 25 µM
- TGI (BT-549 breast): > 25 µM
- GI50 (CAKI-1 renal): > 25 µM
- TGI (CAKI-1 renal): > 25 µM
- GI50 (CCRF-CEM leukemia): > 25 µM
- TGI (CCRF-CEM leukemia): > 25 µM
- GI50 (COLO 205 colon): > 25 µM
- TGI (COLO 205 colon): > 25 µM
- GI50 (DU-145 prostate): > 25 µM
- TGI (DU-145 prostate): > 25 µM
- GI50 (HCC-2998 colon): > 25 µM
- TGI (HCC-2998 colon): > 25 µM
- GI50 (HCT-116 colon): > 25 µM
- TGI (HCT-116 colon): > 25 µM
- GI50 (HCT-15 colon): > 25 µM
- TGI (HCT-15 colon): > 25 µM
- GI50 (HL-60(TB) leukemia): > 25 µM
- TGI (HL-60(TB) leukemia): > 25 µM
- GI50 (HOP-62 NSCLC): > 25 µM
- TGI (HOP-62 NSCLC): > 25 µM
- GI50 (HOP-92 NSCLC): 4.2 µM
- TGI (HOP-92 NSCLC): > 25 µM
- GI50 (HS 578T breast): > 25 µM
- TGI (HS 578T breast): > 25 µM
- GI50 (HT29 colon): > 25 µM
- TGI (HT29 colon): > 25 µM
- GI50 (IGROV1 ovarian): > 25 µM
- TGI (IGROV1 ovarian): > 25 µM
- GI50 (K-562 leukemia): > 25 µM
- TGI (K-562 leukemia): > 25 µM
- GI50 (KM12 colon): > 25 µM
- TGI (KM12 colon): > 25 µM
- GI50 (LOX IMVI melanoma): > 25 µM
- TGI (LOX IMVI melanoma): > 25 µM
- GI50 (M14 melanoma): > 25 µM
- TGI (M14 melanoma): > 25 µM
- GI50 (MALME-3M melanoma): > 25 µM
- TGI (MALME-3M melanoma): > 25 µM
- GI50 (MCF7 breast): > 25 µM
- TGI (MCF7 breast): > 25 µM
- GI50 (MDA-MB-231 breast): > 25 µM
- TGI (MDA-MB-231 breast): > 25 µM
- GI50 (MDA-MB-435): > 25 µM
- TGI (MDA-MB-435): > 25 µM
- GI50 (MOLT-4 leukemia): > 25 µM
- TGI (MOLT-4 leukemia): > 25 µM
- GI50 (NCI-H226 lung): > 25 µM
- TGI (NCI-H226 lung): > 25 µM
- GI50 (NCI-H23 lung): > 25 µM
- TGI (NCI-H23 lung): > 25 µM
- GI50 (NCI-H460 lung): > 25 µM
- TGI (NCI-H460 lung): > 25 µM
- GI50 (NCI-H522 lung): > 25 µM
- TGI (NCI-H522 lung): > 25 µM
- GI50 (NCI/ADR-RES ovarian): > 25 µM
- TGI (NCI/ADR-RES ovarian): > 25 µM
- GI50 (OVCAR-3 ovarian): > 25 µM
- TGI (OVCAR-3 ovarian): > 25 µM
- GI50 (OVCAR-4 ovarian): > 25 µM
- TGI (OVCAR-4 ovarian): > 25 µM
- GI50 (OVCAR-5 ovarian): > 25 µM
- TGI (OVCAR-5 ovarian): > 25 µM
- GI50 (OVCAR-8 ovarian): > 25 µM
- TGI (OVCAR-8 ovarian): > 25 µM
- GI50 (PC-3 prostate): > 25 µM
- TGI (PC-3 prostate): > 25 µM
- GI50 (RPMI-8226 leukemia): > 25 µM
- TGI (RPMI-8226 leukemia): > 25 µM
- GI50 (RXF 393 renal): > 25 µM
- TGI (RXF 393 renal): > 25 µM
- GI50 (SF-268 CNS): > 25 µM
- TGI (SF-268 CNS): > 25 µM
- GI50 (SF-295 CNS): > 25 µM
- TGI (SF-295 CNS): > 25 µM
- GI50 (SF-539 CNS): > 25 µM
- TGI (SF-539 CNS): > 25 µM
- GI50 (SK-MEL-2 melanoma): > 25 µM
- TGI (SK-MEL-2 melanoma): > 25 µM
- GI50 (SK-MEL-28 melanoma): > 25 µM
- TGI (SK-MEL-28 melanoma): > 25 µM
- GI50 (SK-MEL-5 melanoma): > 25 µM
- TGI (SK-MEL-5 melanoma): > 25 µM
- GI50 (SK-OV-3 ovarian): > 25 µM
- TGI (SK-OV-3 ovarian): > 25 µM
- GI50 (SN12C renal): > 25 µM
- TGI (SN12C renal): > 25 µM
- GI50 (SNB-19 CNS): > 25 µM
- TGI (SNB-19 CNS): > 25 µM
- GI50 (SNB-75 CNS): > 9.3 µM
- TGI (SNB-75 CNS): > 25 µM
- GI50 (SR leukemia): > 25 µM
- TGI (SR leukemia): > 25 µM
- GI50 (SW-620 colon): > 25 µM
- TGI (SW-620 colon): > 25 µM
- GI50 (T-47D breast): > 25 µM
- TGI (T-47D breast): > 25 µM
- GI50 (TK-10 renal): > 25 µM
- TGI (TK-10 renal): > 25 µM
- GI50 (U251 CNS): > 25 µM
- TGI (U251 CNS): > 25 µM
- GI50 (UACC-257 melanoma): > 25 µM
- TGI (UACC-257 melanoma): > 25 µM
- GI50 (UACC-62 melanoma): > 25 µM
- TGI (UACC-62 melanoma): > 25 µM
- GI50 (UO-31 renal): > 25 µM
- TGI (UO-31 renal): > 25 µM
